Experimental data from US4870168A, “3-Unsaturated alkyl cephems from 3-triflyl cephems” (Bristol-Myers Company, priority 1987, dated 1989).
≈ marks a conversion by molar mass, not a printed value. Like-named read-outs stand apart in the source and are kept apart here.

Assays:
Format in all cases: cell-based
P. mirabilis = assay: Antibacterial activity (MIC); details: Proteus mirabilis
S. aureus /Meth. Res. = assay: Antibacterial activity (MIC); details: Staphylococcus aureus
S. pyogenes = assay: Antibacterial activity (MIC); details: Streptococcus pyogenes
S. aureus /50% serum = assay: Antibacterial activity (MIC), 50% serum; details: Staphylococcus aureus
E. coli = assay: Antibacterial activity (MIC); details: Escherichia coli
S. aureus = assay: Antibacterial activity (MIC); details: Staphylococcus aureus
S. faecalis = assay: Antibacterial activity (MIC); details: Enterococcus faecalis
S. aureus /Pen. Res. = assay: Antibacterial activity (MIC); details: Staphylococcus aureus
E. cloacae = assay: Antibacterial activity (MIC); details: Enterobacter cloacae
S. pneumoniae = assay: Antibacterial activity (MIC); details: Streptococcus pneumoniae
K. pneumoniae = assay: Antibacterial activity (MIC); details: Klebsiella pneumoniae
[1] = S. aureus /Meth. Res., read-out: MIC
[2] = S. aureus /Pen. Res., read-out: MIC

## N[C@@H](C(=O)N[C@@H]1C(=O)N2C(C(=O)O)=C(Cl)CS[C@H]12)c1ccccc1 [CEFACLOR, reference compound]
P. mirabilis
  MIC: 2 µg/mL (≈ 5.44 µM)
S. aureus /Meth. Res.
  MIC: > 125 µg/mL
S. pyogenes
  MIC: 0.13 µg/mL (≈ 0.353 µM)
S. aureus /50% serum
  MIC: 1 µg/mL (≈ 2.72 µM)
E. coli; first of two lines
  MIC: 1 µg/mL (≈ 2.72 µM)
E. coli; second of two lines
  MIC: 2 µg/mL (≈ 5.44 µM)
S. aureus
  MIC: 0.25 µg/mL (≈ 0.68 µM)
S. faecalis
  MIC: 32 µg/mL (≈ 87 µM)
S. aureus /Pen. Res.
  MIC: 1 µg/mL (≈ 2.72 µM)
E. cloacae
  MIC: > 125 µg/mL
S. pneumoniae
  MIC: 0.13 µg/mL (≈ 0.353 µM)
K. pneumoniae; first of two lines
  MIC: 0.5 µg/mL (≈ 1.36 µM)
K. pneumoniae; second of two lines
  MIC: 63 µg/mL (≈ 171 µM)

## CC1=C(C(=O)O)N2C(=O)[C@@H](NC(=O)[C@H](N)c3ccccc3)[C@H]2SC1 [CEPHALEXIN, reference compound]
P. mirabilis
  MIC: 4 µg/mL (≈ 11.5 µM)
S. aureus /Meth. Res.
  MIC: > 125 µg/mL
S. pyogenes
  MIC: 0.25 µg/mL (≈ 0.72 µM)
S. aureus /50% serum
  MIC: 1 µg/mL (≈ 2.88 µM)
E. coli; first of two lines
  MIC: 4 µg/mL (≈ 11.5 µM)
E. coli; second of two lines
  MIC: 4 µg/mL (≈ 11.5 µM)
S. aureus
  MIC: 0.5 µg/mL (≈ 1.44 µM)
S. faecalis
  MIC: 63 µg/mL (≈ 181 µM)
S. aureus /Pen. Res.
  MIC: 8 µg/mL (≈ 23 µM)
E. cloacae
  MIC: > 125 µg/mL
S. pneumoniae
  MIC: 0.5 µg/mL (≈ 1.44 µM)
K. pneumoniae; first of two lines
  MIC: 4 µg/mL (≈ 11.5 µM)
K. pneumoniae; second of two lines
  MIC: 63 µg/mL (≈ 181 µM)

## C/C=C\C1=C(C(=O)OC(c2ccccc2)c2ccccc2)N2C(=O)C(NC(=O)Cc3ccccc3)[C@H]2SC1 (some centres unmarked) [Ex. 1, Diphenylmethyl 7-phenylacetamido-3-(Z-1-propenyl)-3-cephem-4-carboxylate]
P. mirabilis
  MIC: 1 µg/mL (≈ 1.91 µM)
S. aureus /Meth. Res.; [1]
  MIC: > 125 µg/mL
S. pyogenes
  MIC: 0.016 µg/mL (≈ 0.0305 µM)
S. aureus /50% serum
  MIC: 0.5 µg/mL (≈ 0.953 µM)
E. coli; first of two lines
  MIC: 1 µg/mL (≈ 1.91 µM)
E. coli; second of two lines
  MIC: 4 µg/mL (≈ 7.62 µM)
S. aureus
  MIC: 0.13 µg/mL (≈ 0.248 µM)
S. faecalis
  MIC: 8 µg/mL (≈ 15.2 µM)
S. aureus /Pen. Res.; [2]
  MIC: 1 µg/mL (≈ 1.91 µM)
E. cloacae
  MIC: > 125 µg/mL
S. pneumoniae
  MIC: 0.03 µg/mL (≈ 0.0572 µM)
K. pneumoniae; first of two lines
  MIC: 0.5 µg/mL (≈ 0.953 µM)
K. pneumoniae; second of two lines
  MIC: 63 µg/mL (≈ 120 µM)

## CC#CC1=C(C(=O)OC(c2ccccc2)c2ccccc2)N2C(=O)C(NC(=O)Cc3ccccc3)[C@H]2SC1 (some centres unmarked) [Ex. 2, Diphenylmethyl 7-phenylacetamido-3-(1-propynyl)-3-cephem-4-carboxylate]
P. mirabilis
  MIC: 16 µg/mL (≈ 30.6 µM)
S. aureus /Meth. Res.; [1]
  MIC: > 16 µg/mL
S. pyogenes
  MIC: 4 µg/mL (≈ 7.65 µM)
S. aureus /50% serum
  MIC: > 16 µg/mL
E. coli; first of two lines
  MIC: 16 µg/mL (≈ 30.6 µM)
E. coli; second of two lines
  MIC: 16 µg/mL (≈ 30.6 µM)
S. aureus
  MIC: 4 µg/mL (≈ 7.65 µM)
S. faecalis
  MIC: 16 µg/mL (≈ 30.6 µM)
S. aureus /Pen. Res.; [2]
  MIC: 8 µg/mL (≈ 15.3 µM)
E. cloacae
  MIC: > 16 µg/mL
S. pneumoniae
  MIC: 8 µg/mL (≈ 15.3 µM)
K. pneumoniae; first of two lines
  MIC: 16 µg/mL (≈ 30.6 µM)
K. pneumoniae; second of two lines
  MIC: > 16 µg/mL

## CC(C)=CC1=C(C(=O)OC(c2ccccc2)c2ccccc2)N2C(=O)C(NC(=O)Cc3ccccc3)[C@H]2SC1 (some centres unmarked) [Ex. 3, Diphenylmethyl 7-phenylacetamido-3-(2-methyl-1-propenyl)-3-cephem-4-carboxylate]
P. mirabilis
  MIC: 4 µg/mL (≈ 7.43 µM)
S. aureus /Meth. Res.; [1]
  MIC: > 125 µg/mL
S. pyogenes
  MIC: 0.03 µg/mL (≈ 0.0557 µM)
S. aureus /50% serum
  MIC: 0.06 µg/mL (≈ 0.111 µM)
E. coli; first of two lines
  MIC: 2 µg/mL (≈ 3.71 µM)
E. coli; second of two lines
  MIC: 32 µg/mL (≈ 59.4 µM)
S. faecalis
  MIC: 4 µg/mL (≈ 7.43 µM)
S. aureus /Pen. Res.; [2]
  MIC: 0.5 µg/mL (≈ 0.928 µM)
E. cloacae
  MIC: 63 µg/mL (≈ 117 µM)
S. pneumoniae
  MIC: 0.03 µg/mL (≈ 0.0557 µM)
K. pneumoniae; first of two lines
  MIC: 4 µg/mL (≈ 7.43 µM)
K. pneumoniae; second of two lines
  MIC: > 125 µg/mL

## CC=C=CC1=C(C(=O)O)N2C(=O)C(NC(=O)[C@H](N)c3ccc(O)cc3)C2SC1 (some centres unmarked) [Ex. 14]
P. mirabilis
  MIC: 63 µg/mL (≈ 157 µM)
S. aureus /Meth. Res.; [1]
  MIC: > 63 µg/mL
S. pyogenes
  MIC: 2 µg/mL (≈ 4.98 µM)
S. aureus /50% serum
  MIC: 32 µg/mL (≈ 79.7 µM)
E. coli; first of two lines
  MIC: > 63 µg/mL
E. coli; second of two lines
  MIC: > 63 µg/mL
S. aureus
  MIC: 8 µg/mL (≈ 19.9 µM)
S. faecalis
  MIC: > 63 µg/mL
S. aureus /Pen. Res.; [2]
  MIC: 63 µg/mL (≈ 157 µM)
E. cloacae
  MIC: > 63 µg/mL
S. pneumoniae
  MIC: 2 µg/mL (≈ 4.98 µM)
K. pneumoniae; first of two lines
  MIC: > 63 µg/mL
K. pneumoniae; second of two lines
  MIC: > 63 µg/mL
